Literature values, collected in PMC11320730, “5-Methoxy-2-aminoindane Reverses Diet-Induced Obesity and Improves Metabolic Parameters in Mice: A Potential New Class of Antiobesity Therapeutics” (ACS Pharmacology & Translational Science, 2024).

Legend:
[1] = tested on: adult female participants with anorexia nervosa; details: single 25 mg dose with psychological support, 10 adult female participants; cited from earlier work
[2] = tested on: rats fed a cafeteria diet; parameters: method as in PMID 35664477; details: cited from earlier work
[3] = tested on: lean mice, DIO mice, ob/ob mice and melanocortin-receptor 4 knockout mice; parameters: method as in PMID 35953488; details: ob/ob and melanocortin-receptor 4 knockout mice; cited from earlier work

Compound: CN(C)CCc1c[nH]c2cccc(OP(=O)(O)O)c12 [psilocybin]
- safety and tolerability (adverse events) [1]: no clinically significant adverse events observed
- weight loss ([2]; at the given doses): no effect
- weight gain [2]: reduced
- body weight [3]: no impact
- food intake [3]: no impact
